Data set [1] deals with J774. Description: Cytotoxicity against mouse J774 cells after 72 hrs by Cell titer 96 aqueous one solution cell proliferation assay. Type of data set: cell-based. The note with it: J774, 72 h.
A short description of data set [2]: Partition coefficient, log D of the compound at pH 7.4 by HPLC analysis. As to conditions: octanol/water.
Data set [3] concerns Plasmodium falciparum. Description: Antimalarial activity against chloroquine and pyrimethamine-resistant Plasmodium falciparum W2 infected in human A positive erythrocytes after 72 hrs by SYBR Green I assay. Type of data set: functional, organism-based. The note with it: W2, 72 h.
Data set [4] is described as follows: Permeability of the compound by PAMPA method at pH 7.4. The class given is ADME. The note with it: read-out: permeability. A general note: PAMPA measures passive passage across an artificial lipid membrane.
Data set [5] deals with Plasmodium falciparum. Description: Resistance index, ratio of EC50 for chloroquine, mefloquine, pyrimethamine and atovaquone-resistant Plasmodium falciparum TM90-C2B to EC50 for chloroquine and pyrimethamine-resistant Plasmodium falciparum W2. Type of data set: functional.
The nature of data set [6]: (§1) Stability in mouse liver microsomes. Type of data set: ADME, Microsome. As to conditions: liver microsomes.
Data set [7] is described as follows: Aqueous solubility of compound at pH 7.4 by HPLC analysis. The note with it: buffer.
Data set [8] relates to Plasmodium falciparum. Description: Antimalarial activity against chloroquine, mefloquine, pyrimethamine and atovaquone-resistant Plasmodium falciparum TM90-C2B infected in human A positive erythrocytes after 72 hrs by SYBR Green I assay. Type of data set: functional, organism-based.
Data set [9] can be described thus: Cytotoxicity index, ratio of EC50 for mouse J774 cells to EC50 for chloroquine, mefloquine, pyrimethamine and atovaquone-resistant Plasmodium falciparum TM90-C2B. Type of data set: cell-based. The note with it: read-out: Ratio EC50.
The test system of data set [10] is Liver. The data set is described as §1. As to conditions: microsomes. Type of data set: ADME, Microsome.
The test system of data set [11] is Plasmodium falciparum. Description: Antimalarial activity against Plasmodium falciparum D6 infected in human A positive erythrocytes after 72 hrs by SYBR Green I assay. Type of data set: functional, organism-based. The note with it: D6, 72 h.

Values after ≈ are worked out from the molar mass of the structure shown. Some results are limits rather than exact numbers.

This note sets out measurements from ChEMBL document CHEMBL1799910, “Optimization of 1,2,3,4-tetrahydroacridin-9(10H)-ones as antimalarials utilizing structure-activity and structure-property relationships” (J Med Chem, 2011).

For `Cc1cc(Oc2ccc(OC(F)(F)F)cc2)ccc1-c1ccc2[nH]c3c(c(=O)c2c1)CSCC3`, the EC50 in data set [1] was more than 5 µM; in data set [3] it was 0.0277 µM; in data set [8] it was 0.326 µM. The logD in data set [2] was 3.6. The Papp in data set [4] is less than 1 ×10⁻⁶ cm/s. For the same molecule, the “Ratio EC50” value in data set [5] was determined as 11.8. In data set [6], the half-life came out at 15.1 min. The same molecule yielded a solubility in data set [7] of 7 µM (≈ 3.38 µg/mL). Moreover, in data set [9], the selectivity ratio was not below 100.

Turning to `O=c1c2c([nH]c3ccc(-c4ccc(C(F)(F)F)cc4)cc13)CCSC2`, the results for the EC50 in data set [1], in data set [3] and in data set [8] were more than 10 µM, 0.101 µM and 0.293 µM, respectively. The pH-dependent lipophilicity (logD) in data set [2] is 2.4. Also, the Papp in data set [4] is less than 1 ×10⁻⁶ cm/s. Further, the “Ratio EC50” value in [5] is recorded as 2.9. The molecule also had a half-life in data set [6] of 11.2 min. Moreover, the solubility in [7] amounted to 10 µM (≈ 3.61 µg/mL). The selectivity ratio in data set [9] is not below 100.

`O=c1c2c([nH]c3ccc(-c4ccc(C(F)(F)F)cc4)cc13)CCCC2`: the EC50 in [1] is more than 2 µM; in data set [3], 0.0582 µM; in data set [8], 0.0449 µM. In data set [2], the logD was 3.6. Also, the Papp in data set [4] is 36 ×10⁻⁶ cm/s. For the same molecule, in data set [5], the “Ratio EC50” value is on record as 0.77. The Stability entry in data set [10] is listed as “Stable”. Also, in data set [7], the solubility was 2 µM (≈ 0.687 µg/mL). In addition, in [9], the selectivity ratio is not below 100.

`O=c1c2c([nH]c3cc(-c4ccc(C(F)(F)F)cc4)ccc13)CCCC2`: the EC50 was more than 2 µM in data set [1], 0.0349 µM in data set [3] and 0.0087 µM in data set [8]. Further, the logD in data set [2] came to 2.45. Also, the Papp in data set [4] came out at 250 ×10⁻⁶ cm/s. In addition, the “Ratio EC50” value in data set [5] turned out to be 0.24. In addition, the Stability entry in [10] was “Stable”. In [7], the concentration in solution (solubility) was 3 µM (≈ 1.03 µg/mL). The selectivity ratio in [9] was not below 100.

As to `O=c1c2c([nH]c3cc(-c4ccc(Oc5ccc(OC(F)(F)F)cc5)cc4)ccc13)CCCC2`, the values for the EC50 in [1], in [3] and in data set [8] were more than 0.1 µM, 0.0122 µM and 0.0091 µM, respectively. The pH-dependent lipophilicity (logD) in data set [2] was 3.8. The Papp in data set [4] was determined as 18 ×10⁻⁶ cm/s. Moreover, in data set [5], the “Ratio EC50” value was 0.75. In data set [6], this molecule showed a half-life of 173 min. The solubility in data set [7] amounted to 0.1 µM (≈ 0.0451 µg/mL). For the same molecule, the selectivity ratio in [9] was not below 100.

On to `COc1cc2[nH]c3c(c(=O)c2cc1Cl)CS(=O)(=O)CC3`, for which the concentration giving a half-maximal response (EC50) was more than 20 µM in data set [1], 4.71 µM in [3] and 8.41 µM in data set [8]. In data set [2], this molecule had a pH-dependent lipophilicity (logD) of 1. Moreover, the “Ratio EC50” value in data set [5] was determined as 1.76. Besides, the Stability result in data set [10] was “Stable”. In [7], this molecule returned a solubility of 24 µM (≈ 7.53 µg/mL). Besides, in [9], the selectivity ratio is not below 100.

As to `Cc1cc(Cl)ccc1-c1ccc2[nH]c3c(c(=O)c2c1)CSCC3`, the concentration for a half-maximal effect (EC50) was more than 2 µM in data set [1], 0.0346 µM in data set [3] and 0.0232 µM in [8]. The same molecule returned a logD in data set [2] of 2.4. For the same molecule, the Papp in data set [4] is less than 1 ×10⁻⁶ cm/s. In addition, the “Ratio EC50” value in data set [5] was determined as 0.67. The half-life in data set [6] is 8.4 min. The molecule further yielded a solubility in [7] of 2 µM (≈ 0.684 µg/mL). Moreover, the selectivity ratio in data set [9] is not below 100.

Consider `O=C1CC(c2ccc(C(F)(F)F)cc2)Cc2c1c(=O)c1cc(Cl)ccc1n2O` (stereo not given) [FLOXACRINE], for which the EC50 in data set [3] stood at 0.478 µM; in data set [11], 0.27 µM. In addition, the selectivity ratio in data set [9] is not below 100.

The EC50 is the concentration at which the effect is half-maximal. Higher therefore signals a less potent agent. The logD is the decadic logarithm of the distribution of all forms, ionised or not, between an organic phase and buffer at a given pH. For orientation: half-life means the time in which the quantity being followed falls by half. By solubility is commonly meant the concentration that dissolves in the medium under given conditions.
